Test results: patent US10894059B2, “NADH compound composition, and preparation and use thereof” (BONTAC BIO-ENGINEERING (SHENZHEN) CO., LTD, priority 2017, dated 2021)

Legend:
[1] = people taking L-carnitine for weight loss, as much as 1˜3 g; cited from earlier work
[2] = test system: mice fed with high fat feed; experiment: Comparative pharmacological evaluation in obese mice (high fat feed model); type: in vivo; details: gavage once a day, 50 mg according to L-carnitine, 4 weeks
Experimental: Fifty male mice are selected at 6 weeks of age. The basal feed is fed for two weeks before the start of the experiment, and the initial body weight is 26±2 g. All experimental groups are randomly divided into 5 groups of 10 each, and the groups were as follows. (1) obesity experiment group: 1 group; (2) obesity experiment group: 2 groups; (3) obese control group; (4) obese blank group; (5) normal blank group Cage feeding, 5 in 1 cage; ambient temperature of 22±2° C., humidity of 45˜65%; the light illumination alternates for 12 h, and the mice are free to eat and drink. Among them, the normal blank group is fed with normal feed, and the other 4 groups are fed with high fat feed; changes in body weight are recorded twice a week; the feeding process lasts 6 weeks to establish the model. Group (1) is given a solution of the NADH compound composition prepared in Embodiment 1 by gavage once a day; Group (2) is given a mixture of NADH and L-carnitine in Embodiment 1 (without other ingredients) by gavage once a day; Group (3) is given L-carnitine by gavage once a day; the amount of administration for Group (1), Group (2) and Group (3) is 50 mg according to L-carnitine; during the period, 5 groups of mice are fed with normal diet in free diet, and continued to be observed for 4 weeks. […]

C[N+](C)(C)C[C@H](O)CC(=O)[O-] [L-carnitine, β-hydroxy γ-trimethylammonium butyrate]
absolute bioavailability [1]: 15.9±4.9% | Body fat ratio (%) ([2]; (fat around kidney + fat around testicles)/body weight after test*100): 2.35 ± 2.69% | Body weight growth rate (%) ([2]; weight growth/experimental initial weight*100): 44.98 ± 3.44%
